Reference: patent publication US20220095619A1, “METHOD OF CONTROLLING WEEDS IN A CULTIVATION AREA OF DETERMINATE SOYBEAN” (SUMITOMO CHEMICAL COMPANY, LIMITED, priority 2019, published 2022)

Assays:
[1] = tested on: Kurosengoku/Indeterminate soybean; assay: Example 3 pot test, pre-emergence soil spray: crop injury on soybean variety Kurosengoku; type: in vivo, Glycine max; details: 18 days after treatment
Source text: (§1) The evaluation of the herbicidal effect and crop injury is classified into 0 to 100, where the numeral “0” indicates no or little difference in the state of germination or growth of weeds or soybean under test at the time of examination as comparison with untreated weeds or soybean, respectively and the numeral “100” indicates the complete death of weeds or soybean under test or the complete inhibition of their germination or growth of weeds or soybean under test.
(§2) Four varieties of determinate soybean, four varieties of indeterminate soybean, Palmer amaranth, kochia and large crabgrass were sown to a pot filled with a soil. On the next day, a trifludimoxazin spray liquid. (prepared by diluting an emuslfiable concentrate of trifludimoxazin with water) was uniformly sprayed onto the pot at the amount of 200 L, per hectare so that the application rate of trifludimoxazin might be 25 and 50 g per hectare. 18 days after treatment, herbicidal effects on weeds and injury on soybeans were investigated. As a result, the herbicidal effect on each of the three weeds was 100.

[2] = tested on: Fukunari/Determinate soybean; assay: Example 3 pot test, pre-emergence soil spray: crop injury on soybean variety Fukunari; type: in vivo, Glycine max; details: 18 days after treatment
Source text: as §1, §2

[3] = tested on: Tambaguro/Determinate soybean; assay: Example 3 pot test, pre-emergence soil spray: crop injury on soybean variety Tambaguro; type: in vivo, Glycine max; details: 18 days after treatment, 0 = no or little difference from untreated, 100 = complete death
Source text: as §1, §2

[4] = tested on: determinate soybean, indeterminate soybean, semi-determinate soybean; assay: Example 1 pot test, spray two days after sowing: injury on soybeans; type: in vivo, Glycine max; details: 25 or 50 g per hectare; applied two days after sowing; 21 days after the treatment
Source text: as §1
(§3) A pot is filled with a soil, and the determinate soybean, indeterminate soybean, semi-determinate soybean, palmer amaranth, waterhemp, kochia, common ragweed and marestail are sown thereto. Two days later, trifludimoxazin spray liquid (prepared by diluting trifludimoxazin formulation an aqueous suspension concentrate containing 500 g/L of trifludimoxazin) with water) is uniformly applied onto the pot using a sprayer at the amount of 200 L per hectare so that the application rate of trifludimoxazin may be 25 or 50 g per hectare. 21 days after the treatment, herbicidal effects and injuries on various soybeans are investigated.

[5] = tested on: Wild soybean/Indeterminate; assay: Example 3 pot test, pre-emergence soil spray: crop injury on wild soybean; type: in vivo, Glycine soja; details: 18 days after treatment
Source text: as §1, §2

kochia = assay: Example 3 pot test, pre-emergence soil spray: herbicidal effect on kochia; type: in vivo, Kochia scoparia; details: 25 and 50 g per hectare, 18 days after treatment, 100 = complete death
Source text: as §1, §2

large crabgrass = assay: Example 3 pot test, pre-emergence soil spray: herbicidal effect on large crabgrass; type: in vivo, Digitaria sanguinalis; details: 25 and 50 g per hectare, 18 days after treatment, 100 = complete death
Source text: as §1, §2

[6] = tested on: Harosoy/Indeterminate soybean; assay: Example 3 pot test, pre-emergence soil spray: crop injury on soybean variety Harosoy; type: in vivo, Glycine max; details: 18 days after treatment
Source text: as §1, §2

[7] = tested on: Sachiyutaka/Determinate soybean; assay: Example 3 pot test, pre-emergence soil spray: crop injury on soybean variety Sachiyutaka; type: in vivo, Glycine max; details: 18 days after treatment
Source text: as §1, §2

[8] = tested on: palmer amaranth, waterhemp, kochia, common ragweed and marestail; assay: Example 1 pot test, spray two days after sowing: herbicidal effect on weeds; type: in vivo; details: 25 or 50 g per hectare; applied two days after sowing; 21 days after the treatment
Source text: as §1, §3

[9] = tested on: Toyomusume/Determinate soybean; assay: Example 3 pot test, pre-emergence soil spray: crop injury on soybean variety Toyomusume; type: in vivo, Glycine max; details: 18 days after treatment
Source text: as §1, §2

[10] = tested on: determinate soybean, indeterminate soybean, and semi-determinate soybean; assay: Example 2 pot test, spray one day before soybean sowing: injury on soybeans; type: in vivo, Glycine max; details: 25 or 50 g per hectare; applied one day before sowing soybeans; 21 days after sowing soybeans
Source text: as §1
(§4) A pot is filled with a soil, and then Palmer amaranth, waterhemp, kochia, common ragweed and marestail are sown thereto. On the same day, trifludimoxazin spray liquid (prepared by diluting trifludimoxazin formulation (an aqueous suspension concentrate containing 500 g/L of trifludimoxazin) with water) is uniformly applied onto the pot using a sprayer at the amount of 200 L per hectare so that the application rate of trifludimoxazin may be 25 or 50 g per hectare. On the next day, determinate soybean, indeterminate soybean, and semi-determinate soybean are sown. 21 days after sowing soybeans, herbicidal effects and injuries on various soybeans are investigated.

[11] = tested on: Williams 82/Indeterminate soybean; assay: Example 3 pot test, pre-emergence soil spray: crop injury on soybean variety Williams 82; type: in vivo, Glycine max; details: 18 days after treatment
Source text: as §1, §2

Palmer amaranth = assay: Example 3 pot test, pre-emergence soil spray: herbicidal effect on Palmer amaranth; type: in vivo, Amaranthus palmeri; details: 25 and 50 g per hectare, 18 days after treatment, 100 = complete death
Source text: as §1, §2

[12] = tested on: palmer amaranth, waterhemp, kochia, common ragweed and marestail; assay: Example 2 pot test, spray on day of weed sowing, before soybean sowing: herbicidal effect on weeds; type: in vivo; details: 25 or 50 g per hectare; applied on day of weed sowing; 21 days after sowing soybeans
Source text: as §1, §4

With `C#CCN1C(=O)C(F)(F)Oc2cc(F)c(-n3c(=O)n(C)c(=S)n(C)c3=O)cc21` [trifludimoxazin] the “injury on soybeans (0 to 100 scale)” value ([1]; 25 g/hectare) was 30, the “injury on soybeans (0 to 100 scale)” value ([1]; 50 g/hectare) was 60 and the “injury on soybeans (0 to 100 scale)” value ([2]; 25 g/hectare) was 0. For the same compound, the “injury on soybeans (0 to 100 scale)” value ([2]; 50 g/hectare) was 0, the “injury on soybeans (0 to 100 scale)” value ([3]; 25 g/hectare) was 0 and the “injury on soybeans (0 to 100 scale)” value ([3]; 50 g/hectare) was 10. The “injuries on various soybeans (comparison of growth habits)” value [4] was “injury on determinate soybean is less than those on indeterminate soybean and semi-determinate soybean”, the “injury on soybeans (0 to 100 scale)” value ([5]; 25 g/hectare) was 100 and the “injury on soybeans (0 to 100 scale)” value ([5]; 50 g/hectare) was 100. For the same compound, the “herbicidal effect (0 to 100 scale)” value (kochia) was 100, the “herbicidal effect (0 to 100 scale)” value (large crabgrass) was 100 and the “injury on soybeans (0 to 100 scale)” value ([6]; 25 g/hectare) was 30. For the same compound, the “injury on soybeans (0 to 100 scale)” value ([6]; 50 g/hectare) was 50, the “injury on soybeans (0 to 100 scale)” value ([7]; 25 g/hectare) was 0 and the “injury on soybeans (0 to 100 scale)” value ([7]; 50 g/hectare) was 0. For the same compound, the “herbicidal effects on weeds” value [8] was “High herbicidal effects on all weeds”, the “injury on soybeans (0 to 100 scale)” value ([9]; 25 g/hectare) was 0 and the “injury on soybeans (0 to 100 scale)” value ([9]; 50 g/hectare) was 5. For the same compound, the “injuries on various soybeans (comparison of growth habits)” value [10] was “injury on determinate soybean is less than those on indeterminate soybean and semi-determinate soybean”, the “injury on soybeans (0 to 100 scale)” value ([11]; 25 g/hectare) was 40 and the “injury on soybeans (0 to 100 scale)” value ([11]; 50 g/hectare) was 80. The “herbicidal effect (0 to 100 scale)” value (Palmer amaranth) was 100 and the “herbicidal effects on weeds” value [12] was “High effects on all weeds”.
